Results reported in US10335417B2, “Thiazideamide derivative and use thereof” (Institute of Pharmacology and Toxicology Academy of …, priority 2015, dated 2019).

How the values were obtained:
[1] = system: chick embryo dorsal root ganglion; assay: in vitro serum-free culture model of chick embryonic dorsal root ganglion: neurite growth score with NGF; assay type: cell-based; conditions: for Average score (growth of neurites of chick embryo dorsal root ganglion): 48 h, score 0-3, average of five ganglions, control 0.33
Experimental: The neurotrophic activity of the compounds according to the invention can be embodied in multiple in vitro biological models, such as in vitro serum-free culture model of chick embryonic dorsal root ganglion.
Experimental method: in a sterile environment, chick embryo, which had been incubated for 8 d, had the spinal and bilateral ganglion exposed under anatomical lens. Dorsal root ganglions were picked one by one using sharp forceps, and seeded in culture bottles spread with rat tail collagen, at a density of 5-6 ganglions per bottle, and two bottles for each dose. After attachment culture in a 37° C., 5% CO2 incubator for 1 h, serum-free medium DMEM containing nerve growth factor (NGF) (0.15 ng/mL), and the compound according to the invention were added. In the control group, only the medium and the same dose of NGF were added. After culture in the incubator for 48 h, the growth of neurite around dorsal root ganglion was observed under inverted phase contrast microscope, which was scored depending on the length and density of neurite.
Evaluation criteria: 0: no neurite; 1: rare long neurite; 2: relatively long or dense neurite; 3: long and dense neurite.

in vitro = conditions: dog, MDCK-MDR1
Text: (§1) MDCK-MDR1 cells were monolayer cells which highly express P-gp transporter after transfection of MDCK (Madin-Darby canine kidney epithelial cell) with MDR1 gene. Due to its density and high expression of efflux protein, the monolayer has similarity compared to blood-brain barrier (BBB) structure and now can be used as one of models for evaluating the ability of passing through BBB. In the invention, MDCK-MDR1 cells were used to study the membrane permeability of the compounds according to the invention, and to primarily evaluate its ability of passing through BBB.
(§2) The frozen MDCK-MDR1 cells were quickly thawed in a 37° C. water bath. To the resuscitated cells, DMEM medium containing 10% FBS was added, and the cells were cultured in an incubator at 37° C., 5% CO2, and a relative humidity of 90%. The medium was changed every other day. After fusion of the cells growing for 1-2 days, the cells were digested with 0.25% trypsin-EDTA (0.2%) mixed digestion solution at 37° C., and were sub-cultured at a certain ratio. The cells for use in experiment were those passaged for 40-60 generations.
(§3) When the cell fusion degree reached 80%, the cells were digested and then suspended in complete medium, and seeded to Millicell plate at 1×10^6 cells·mL^−1. The medium was changed every other day, and 1 week later, the medium was changed every day. After culturing for 5 days, the resistance value reached a constant value (>200 Ω·cm^2), and the cells could be used in the transport experiment.
(§4) After washing with 37° C. HBSS twice, the cells were incubated in a 37° C. culture incubator, wherein Rho-123 was added to the upper wells, and HBSS was added to the bottom wells. The incubation was carried out in a constant temperature shaker, and the solutions from the bottom wells were collected at each time point (0 min, 30 min, 90 min, 120 min), and stored at −20° C. for further use. The amount of Rho-123 permeated to the bottom well was determined by fluorospectrophotometer, wherein the emission wavelength was […], and the excitation wavelength was 530 nm.
(§5) The permeability from cavity-surface to basal surface: drug-containing HBSS 0.35 mL was add to Apical (AP), and blank HBSS 1.2 mL was added to Basolateral (BL). The Millicell was placed at 37° C. in a shaker under shaking at 50 r·min^−1, 50 μL sample was collected from the bottom well at 0, 30, 90, 120 min, respectively, and the same volume of blank HBSS was supplemented. 3 wells were set for each concentration, and to the sample, an internal standard solution (50 μL) and ethyl acetate (350 μL) were added precisely. The mixture was mixed homogeneously under shaking, and centrifuged at 12000 rmp for 5 min. The supernatant (300 μL) was volatilized to dryness, and re-dissolved in 50 μL acetonitrile. The 10 μL resultant solution was used for determination.
(§6) The permeability from basal surface to cavity surface: the drug is added to Basolateral (BL), and blank HBSS was added to Apical (AP), and the other steps were the same as those of the experiment for determining the permeability from cavity-surface to basal surface.
(§7) The apparent permeability coefficient (Papp) of a drug reflects the ability of the drug to pass through cell monolayer and the drug absorption rate and extent. It can be calculated in accordance with the following equation: […]
(§8) wherein, Q represents the amount of drug permeated in the t period, A represents cell surface area, and represents the area (0.6 cm^2) of supporting film in this model, and C0 represents an initial concentration. The unit of Papp is expressed as cm·s^−1.
(§9) By measurement using LC/MS, the concentration of each sample was quantitated using its standard curve (50 nM-10000 nM).

MDCK-MDR1 cells = assay: in vitro; conditions: dog, MDCK-MDR1, 120 min
Text: as §1, §2, §3, §4, §5, §6, §7, §8, §9

[2] = system: BCAO-LBP mice (incomplete global cerebral ischemia); assay: mouse BCAO-LBP model of incomplete global cerebral ischemia: cerebral MDA content and neurological function score; assay type: in vivo, Kunmin mice; conditions: for Neurologic deficit score / MDA content: 30 mg/kg i.g. once/d for 3 d, x ± SEM; for Neurologic deficit score: behaviour within 6 h after ligation, model group 3.92, sham 0.00; for neurologic deficit score decreased compared to the group administered with Compound 6: 30 mg/kg i.g., BCAO-LBP mice; for MDA content: whole cerebrum, model group 40.94, sham 33.15
Text: In the Example, Kunmin mice were used as experimental subjects, intragastric (i.g.) administration was used, mouse BCAO-LBP (bilateral carotid artery occlusion with low blood pressure) model was used, and by determining neurological function score and the cerebral malondialdehyde (MDA) content in mice, the compounds were investigated for their protective effects on incomplete global cerebral ischemia in mice when administered prophylactically.
2.1.2 Preparation of a drug for intragastric administration: the compound was prepared to a 1.5 mg/ml solution using 0.7% CMC-Na solution.
28 mice, which had adapted to the laboratory environment for 1 week, were evenly grouped depending on body weight. The mice were intragastrically administered with 0.7% CMC-Na or one of the compounds, once/d, for 3 d. The groups were as followed:
Administration group: 12 mice, intragastrically administered at a dose of 0.2 ml/10 g, i.e., the dose of the compound was 30 mg/kg.
2.3.1 Mouse bilateral carotid artery ligation: 1 h after the last administration, the mice were subjected to orbital bloodletting to reduce blood pressure (which was about 30% of the total blood volume of the mice), and then fixed in supine position on the operating table, and cut in the middle of neck. Carotid artery was subjected to blunt dissection, and 2 lines were used in ligation for each side. The time counting started after the ligation with the third line, the carotid artery was cut off between the two lines, and the incision was sewn up. In the Sham-operated group, the carotid artery was only separated without ligation. After the operation, the mice were unfixed quickly, and the mice were observed and recorded for the behaviors within 6 h (scoring depending on the following table using blind method) and the death time. The brains were taken quickly after the mice died, the cerebellums were removed, and the MDA content in the whole cerebrum was determined by thiobarbituric acid (TBA).
The cerebra of mice were taken and weighed, and were prepared into 15% brain homogenate using N.S. 1.2 ml brain homogenate was placed in a 37° C. water bath for 1 h (shaking once every 10 min) and then taken out. 20% trichloroacetic acid 0.6 ml was added, and the mixture was mixed well, and was on standing for 10 min. After centrifugation at 2000 rpm for 10 min, to 1.2 ml supernatant, 0.67% TBA 0.6 ml was added. The mixture was placed in a boiling water bath for 10 min, and was taken out for cooling, and the OD value at a wavelength of 532 nm was determined.
The experimental data was expressed as x±SEM; SPSS 13.0 statistic software was used. Homogeneity or heterogeneity of variance was determined by one-factor analysis of variance. In the case of homogeneity of variance, LSD test was used; in the case of heterogeneity of variance, Dunnett's T3 test was used. Significant difference among different groups was compared, and P<0.05 indicated statistical significance.

[3] = compound 100 pM + NGF 0.15 ng/mL

| Papp at 120 min (in vitro) [×10⁻⁶ cm/s] | Papp value increased compared to Compound 6 (MDCK-MDR1 cells) | Structure (SMILES) | Average score (growth of neurites of chick embryo dorsal root ganglion) ([1]; compound 1 pM + NGF 0.15 ng/mL) | Average score (growth of neurites of chick embryo dorsal root ganglion) [1, 3] | Neurologic deficit score [2] | neurologic deficit score decreased compared to the group administered with Compound 6 [2] [%] | MDA content [2] [nmol/g] | neurotrophic activity increased compared to Compound 6 ([1]; dose 1 pM) [%] | neurotrophic activity increased compared to Compound 6 ([1]; dose 100 pM) [%] |
| --- | --- | --- | --- | --- | --- | --- | --- | --- | --- |
| 44.2 | above 7% | Cc1ccc(S(=O)(=O)N2CCSC[C@H]2C(=O)N[C@@H](Cc2ccccc2)C(=O)OC(C)C)cc1 [Compound 23, (S)-isopropyl-3-phenyl-2((R)-(4-methylphenyl)sulfonyltetrahydro-1,4-thiazin-3-aminoformyl)propionate] | 2.12 | 3.21 | 1.81 ± 0.26 | ~13 | 31.87 ± 0.95 |  |  |
| 49.8 | above 7% | CCOC(=O)[C@@H](NC(=O)[C@@H]1CSCCN1S(=O)(=O)c1ccc(C)cc1)C(C)CC (stereo partly drawn) [Compound 7, (2S,3R)-ethyl-3-methyl-2((R)-(4-methylphenyl)sulfonyltetrahydro-1,4-thiazin-3-aminoformyl)valerate] | 1.46 | 1.95 |  |  |  |  |  |
| 45.8 | above 7% | CCc1ccc(S(=O)(=O)N2CCSC[C@H]2C(=O)NC(CC(C)C)C(=O)OC(C)C)cc1 (stereo in doubt) [Compound 28, (3R)-4-[(4-ethylbenzenesulfonyl)]tetrahydro-1,4-thiazin-3-carbonyl-L-leucine isopropyl ester] | 2.00 | 2.96 | 1.87 ± 0.31 | ~10 | 30.90 ± 1.65 | 19 | 16 |
